Data set [1] concerns Simian immunodeficiency virus. Nature of the data set: Inhibition of SIV-induced cytopathogenicity in CEM174 cells. It is filed as functional, organism-based.
Data set [2] can be described thus: Cytotoxicity against CEM174 cells. The conditions noted are these: human, read-out: TC50 (the source's name). It is filed as cell-based.
The next data set has as its system 293T. Nature of the data set: Inhibition of Tat-mediated transactivation in human 293T cells assessed as CAT expression at 30 uM. The settings on record: Human immunodeficiency virus 1. The data set is classed as cell-based.
A short description of data set [3]: Selectivity index, ratio of EC50 for SIV infected CEM174 cells to TC50 for CEM174 cells. The data set is classed as functional.

Structures are written as SMILES.

As usually defined, the EC50 is the concentration needed to bring the measured effect to its halfway point. High values mean a less potent agent, low ones a more potent agent. The term inhibition denotes the change of the read-out against control, counted positive when it falls.

In data set [1], `Cc1cn([C@H]2C[C@H](N=[N+]=[N-])[C@@H](CO)O2)c(=O)[nH]c1=O` [ZIDOVUDINE] had an EC50 of 12.2 nM. Also, the CC50 in data set [2] is > 100 µM.

`CCN(CC)CC[n+]1c(SCC(=O)NCCCN)[nH]c2c(C)nc(N(CC)CC)nc21`: the inhibition in the data set on 293T is 43.3%. This molecule showed an EC50 in data set [1] of 1400 nM. In addition, the CC50 in data set [2] is > 100 µM. Moreover, in data set [3], the Selectivity index is recorded as >71.4.

Regarding `CCN(CC)c1nc(C)c2[nH]c(SCC(=O)NCCNC(=N)N)nc2n1`, in the data set with 293T, the inhibition is 57.1%. The molecule also came in with an EC50 in data set [1] of 4200 nM. In addition, the CC50 in data set [2] was > 100 µM. Besides, the Selectivity index in data set [3] is listed as >23.8.

As for `CCN(CC)CC[n+]1c(SCC(=O)NCCCNC(=N)N)[nH]c2c(C)nc(N(CC)CC)nc21`, the inhibition in the data set with 293T is 36.2%. In addition, the 50% effective concentration (EC50) in data set [1] turned out to be 4700 nM. Also, in data set [2], the CC50 is > 100 µM. In addition, the Selectivity index in data set [3] was >21.3.

`CCN(CC)CC[n+]1c(SCC(=O)NCCNC(=N)N)[nH]c2c(C)nc(N(CC)CC)nc21`: the inhibition in the data set on 293T was 34.9%. This molecule showed an EC50 in data set [1] of 700 nM. In addition, the CC50 in data set [2] is > 100 µM. Moreover, the Selectivity index in data set [3] is >142.9.

Take `CCN(CC)c1nc(C)c2[nH]c(SCC(=O)NCCN)nc2n1`: the inhibition in the data set on 293T was 65.7%. In data set [1], the EC50 worked out at 2000 nM. Further, the CC50 in data set [2] was > 100 µM. In data set [3], the Selectivity index is given as >50.

For `CCN(CC)c1nc(C)c2[nH]c(SCC(=O)NCCCN)[n+](CCCN(C)C)c2n1`, the inhibition in the data set on 293T was determined as 48.7%. Besides, the EC50 in data set [1] worked out at 200 nM. In addition, the CC50 in data set [2] was > 100 µM. The Selectivity index in data set [3] is reported as >500.

`CCN(CC)c1nc(C)c2[nH]c(SCC(=O)NCCNC(=N)N)[n+](CCCN(C)C)c2n1`: the inhibition with 293T came out at 50.2%. Besides, the EC50 in data set [1] stood at 7200 nM. The CC50 in data set [2] is > 100 µM. In addition, in data set [3], the Selectivity index is >13.9.

On to `CCN(CC)c1nc(C)c2[nH]c(SCC(=O)NCCN)[n+](CCCN(C)C)c2n1`, for which the inhibition in the data set with 293T came out at 57.7%. This molecule had an EC50 in data set [1] of 3400 nM. Besides, in data set [2], the CC50 was > 100 µM. Further, the Selectivity index in data set [3] is reported as >29.4.

In the case of `CCN(CC)c1nc(C)c2[nH]c(SCC(=O)NCCCN)nc2n1`, the inhibition in the data set with 293T was found to be 58.4%. The response in data set [1] was half-maximal at 500 nM (EC50). Besides, the CC50 in data set [2] was > 100 µM. For the same molecule, the Selectivity index in data set [3] was >200.

Turning to `CCN(CC)c1nc(C)c2[nH]c(SCC(=O)NCCCNC(=N)N)nc2n1`, the inhibition in the data set on 293T stood at 57.1%. Besides, a half-maximal effect in data set [1] (EC50) was put at 700 nM. For the same molecule, the CC50 in data set [2] was > 100 µM. For the same molecule, the Selectivity index in data set [3] is recorded as >142.9.

On to `CCN(CC)c1nc(C)c2[nH]c(SCC(=O)NCCCNC(=N)N)[n+](CCCN(C)C)c2n1`, for which, in the data set on 293T, the inhibition turned out to be 48.8%. The EC50 in data set [1] turned out to be 3200 nM. Besides, the CC50 in data set [2] is > 100 µM. The Selectivity index in data set [3] is recorded as >31.25.

For the molecule `CCN(CC)CC[n+]1c(SCC(=O)NCCN)[nH]c2c(C)nc(N(CC)CC)nc21`, in the data set with 293T, the inhibition amounted to 43.1%. The molecule also showed an EC50 in data set [1] of 1300 nM. Also, in data set [2], the CC50 was 52.2 µM. Moreover, in data set [3], the Selectivity index stood at 40.2.
